# Test results: publication PMC11648915, “Identification and development of TRPM4 antagonists to counteract neuronal excitotoxicity” (iScience, 2024)
# pIC50: −log10 of the molar value. Read-outs that look alike come from different tables or passages of the source.
# Key:
# [1] = biological target: human TRPM4 (Homo sapiens, UniProt Q8TD43); assay: QPatch automated patch clamp on TRPM4-expressing HEK293 cells; assay type: cell-based; details: hsTRPM4-expressing HEK293 cells
# Method: QPatchHTX, an automated electrophysiology platform, was used in single hole mode. One day before use human TRPM4- or TRPM5-expressing HEK293 cells were seeded in a T75 flask at a density of 53k cells per cm^2 and at passages < 23. […] The extracellular solution was (in mM): CaCl2 (7), MgCl2 (2), KCl (5), HEPES (10), NaCl (70), NMDG (70); pH 7.4 with NaOH. The intracellular solution was (in mM): HEPES (10), NMDG (100), NaCl (50), EGTA (20), MgCl2 (1), CaCl2 (21); pH 7.2 with HCl. […] This protocol was repeated every 7 seconds. […] FFA was used as reference compound and applied cumulatively with each concentration incubating at a minimum of 20 voltage protocol runs (140 seconds) with the current after addition of FFA being calculated as full block. […] Each compound was measured at least 3 time independently.
# [2] = test system: primary mouse neuronal cultures; assay: Glutamate-induced excitotoxicity assay (RealTime-Glo viability); assay type: cell-based; details: 5 μM, primary mouse neuronal cultures
# Method: To evaluate the in vitro efficacy of our developed compounds, we employed primary mouse neuronal cultures (PNCs) and conducted glutamate-induced excitotoxicity assays. Cultures were pre-treated with respective Series 1 and Series 3 compounds before glutamate exposure, and neuronal viability was assessed 15 h post-stimulation with glutamate.
# Figure 3 Neuroprotective in vitro evaluation and in vivo pharmacokinetics (A) In vitro evaluation of compound activity on glutamate-induced excitotoxicity in mature primary neuronal cultures. Neuronal cultures were treated with 5 μM of the specified compound or vehicle control 5 h prior to glutamate stimulation, assessing compound rescue activity and toxicity relative to minimal (Vehicle +0 μM Glu) and maximal (Vehicle +50 μM Glu) excitotoxicity. Time course of a representative compound with virtual endpoint at 15 h post stimulation and assay window definition (left). Toxicity of compound treated cultures with and without glutamate stimulation (right). Data are represented as mean and 95% confidence interval; n ≥ 4; ∗p < 0.05, ∗∗p < 0.01, ∗∗∗p < 0.001; One-sample Wilcoxon signed-rank test. […] Mitochondrial membrane potential was measured by the mean fluorescence intensity of TMRE normalized to MitoTracker. Data are represented as mean ± SEM; n = 5; paired t-test. (C) In vivo pharmacokinetics of four selected compounds. Time course of compound concentration in the brain, heart, and plasma after a single dose via intraperitoneal (i.p.) or intravenous (i.v.) application. Data are represented as mean ± SEM. Half-life estimates by non-compartmental analysis are shown as vertical line and IC50 value as dashed horizontal line. (D) Compound concentration in the brain relative to respective IC50 concentrations after a single dose via intra-peritoneal or intra-venous routes. Also see Figure S6.
# Excitotoxicity assays were performed using primary mouse neuronal cultures between 14 and 17 days in vitro (DIV). Cell viability was measured using RealTime-Glo MT Cell Viability Assay (Promega, catalog no. G9711) according to the manufacture protocol. Compounds were co-administered with RealTime-Glo reagents, and luciferase measurements were conducted using the Tecan-Spark M10 microplate reader with environmental control set to 37°C and 5% CO2. Neuronal cultures were stimulated with either glutamate or vehicle five hours after compound application and monitored for an additional 20 hours. To adjust for inter-well variability, arbitrary light units were normalized to a steady signal prior to glutamate addition for each well. Toxicity was calculated relative to the minimal cell viability at 15 hours post glutamate stimulation and cell viability of the PBS vehicle control.
# [3] = Parallel Artificial Membrane Permeability Assay (PAMPA); assay type: in vitro ADME; details: pH not given
# Method: Parallel Artificial Membrane Permeability Assay (PAMPA) was performed using artificial lipid membrane layers to assess passive permeability of the test compound. Test compounds were diluted to 200 μM in system buffer at pH 5.0, 6.2 and 7.4. The solutions were filtered and 150 μL transferred to a High Sensitivity 96 well UV plate. This was analysed by UV as the reference plate. A 200 μL sample of the 200 μM solution was transferred to the ‘donor’ plate of the PAMPA pIon sandwich plate system. 200 μL of acceptor sink buffer was transferred to the ‘acceptor’ plate which had been previously treated with GIT-O lipid solution across the well filter. Donor and acceptor plates were sandwiched and kept in a humid environment at room temperature for 16 hours. On completion of the incubation the donor and acceptor plates were separated. 150 μL of solution was transferred from each of the donor and acceptor PAMPA sandwich plates into High Sensitivity 96 well UV plates for analysis by UV. at different time points. The concentration of the compound in the acceptor compartment was determined using mass spectrometry. The permeability coefficient (Papp) was calculated based on the rate of appearance of the compound in the acceptor compartment (nm/s).
# [4] = biological target: T1, CYP 1A2 (Homo sapiens, UniProt P05177); assay: CYP inhibition assay 1A2; assay type: in vitro ADME
# T1 construct: purchased BD Gentest
# T1 sequence (P05177 1-516): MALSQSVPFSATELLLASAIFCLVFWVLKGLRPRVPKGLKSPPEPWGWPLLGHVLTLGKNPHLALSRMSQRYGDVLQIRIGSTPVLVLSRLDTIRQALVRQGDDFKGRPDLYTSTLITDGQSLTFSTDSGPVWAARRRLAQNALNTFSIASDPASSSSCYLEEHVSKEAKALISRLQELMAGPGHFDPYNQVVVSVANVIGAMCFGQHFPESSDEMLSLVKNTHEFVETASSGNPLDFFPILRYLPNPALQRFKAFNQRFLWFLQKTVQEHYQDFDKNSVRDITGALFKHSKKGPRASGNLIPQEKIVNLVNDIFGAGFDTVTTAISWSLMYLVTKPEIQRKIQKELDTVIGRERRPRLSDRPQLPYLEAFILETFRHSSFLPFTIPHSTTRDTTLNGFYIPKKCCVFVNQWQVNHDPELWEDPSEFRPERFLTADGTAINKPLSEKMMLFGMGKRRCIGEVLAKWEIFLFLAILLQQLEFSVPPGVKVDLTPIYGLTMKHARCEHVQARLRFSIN
# Method: The half-maximal inhibitory concentration (IC50) for cytochrome P450 (CYP) enzymes was determined using an in vitro enzyme inhibition assay. Recombinant CYP enzymes or human liver microsomes from BD Gentest, in 0.1 M phosphate buffer pH 7.4, containing native CYP enzymes were incubated with the test compound at various concentrations (1, 3, 10 and 30 μM) and containing 0.5% DMSO and 0.1% BSA final concentrations. 1 mM of NADPH cofactor was added and the reaction was started by a rapid increase of temperature until 37°C.
# [5] = Caco-2 permeability assay; assay type: in vitro ADME; details: human, direction not given
# Method: Caco-2 permeability was evaluated using a cell-based assay with Caco-2 cells cultured on permeable membrane inserts. The test compound was added at 10 μM to the apical (donor) compartment, and samples were collected from the basolateral (receiver) compartment at 120 min. The test compound was also added at 10 μM to the basolateral (donor) compartment, and samples were collected from the apical (receiver) compartment at 120 min. The amount of the compound in both compartments was measured using mass spectrometry (LC-MS/MS). The permeability coefficient (Papp, nm/s) apical to basolateral and basolateral to apical, and an efflux ratio were calculated.
# Sequence of human TRPM4 (Q8TD43 whole entry): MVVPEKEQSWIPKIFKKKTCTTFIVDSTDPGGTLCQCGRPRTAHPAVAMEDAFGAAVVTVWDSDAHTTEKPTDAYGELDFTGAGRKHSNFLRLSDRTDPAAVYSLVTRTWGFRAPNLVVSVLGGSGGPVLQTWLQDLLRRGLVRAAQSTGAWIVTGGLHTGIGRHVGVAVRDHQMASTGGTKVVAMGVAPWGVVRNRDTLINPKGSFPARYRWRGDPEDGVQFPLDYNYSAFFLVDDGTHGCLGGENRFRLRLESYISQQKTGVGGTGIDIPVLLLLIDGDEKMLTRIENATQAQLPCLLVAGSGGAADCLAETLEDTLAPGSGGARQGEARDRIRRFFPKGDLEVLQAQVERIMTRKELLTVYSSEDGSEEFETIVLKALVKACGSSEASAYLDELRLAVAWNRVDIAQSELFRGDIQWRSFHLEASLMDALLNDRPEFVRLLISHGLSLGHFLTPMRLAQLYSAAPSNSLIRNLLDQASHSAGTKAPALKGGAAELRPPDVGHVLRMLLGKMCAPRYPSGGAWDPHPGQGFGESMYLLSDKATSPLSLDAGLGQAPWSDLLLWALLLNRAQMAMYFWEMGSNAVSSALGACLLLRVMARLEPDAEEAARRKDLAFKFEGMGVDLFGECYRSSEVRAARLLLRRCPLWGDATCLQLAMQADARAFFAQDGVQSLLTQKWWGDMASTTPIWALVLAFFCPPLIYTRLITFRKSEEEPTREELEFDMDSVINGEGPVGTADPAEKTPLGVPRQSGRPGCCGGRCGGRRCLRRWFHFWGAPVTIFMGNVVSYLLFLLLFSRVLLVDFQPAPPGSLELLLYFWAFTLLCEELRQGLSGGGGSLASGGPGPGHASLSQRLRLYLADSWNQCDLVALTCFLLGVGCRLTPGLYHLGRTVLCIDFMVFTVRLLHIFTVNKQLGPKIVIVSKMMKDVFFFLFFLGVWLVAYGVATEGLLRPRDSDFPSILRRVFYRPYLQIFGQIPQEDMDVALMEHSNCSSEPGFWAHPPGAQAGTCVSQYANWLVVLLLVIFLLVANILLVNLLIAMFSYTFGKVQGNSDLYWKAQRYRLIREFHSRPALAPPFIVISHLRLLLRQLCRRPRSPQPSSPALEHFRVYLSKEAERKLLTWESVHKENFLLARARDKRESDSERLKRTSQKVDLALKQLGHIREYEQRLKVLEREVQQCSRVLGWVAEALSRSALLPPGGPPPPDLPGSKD
"Papp at 120 min, 10 μM ([5]; read-out: Caco-2 perm.)","Papp at 120 min, 10 μM ([5]; heading: Caco-2 perm.)","Papp at 16 h, 200 μM ([3]; PAMPA, read-out: PAMPA perm.)",SMILES,pIC50 [1],Compound toxicity in neuronal cultures [2],PAMPA perm. [3],pIC50 [4]
,,,Fc1cccc(-c2ccccc2NCc2nc3ccccc3o2)c1 [CMP343],7.05,,,
,,,Fc1ccccc1-c1ccccc1NCc1nc2ccccc2o1 [CMP353],7.10,observed toxicity,low sensitivity,6.00
,,,c1csc(-c2ccccc2NCc2nc3ccccc3o2)c1 [CMP355],6.23,observed toxicity,,5.89
52 ×10⁻⁶ cm/s,,,Cc1ccsc1-c1ccccc1NCc1nc2ccccc2o1 [CMP369],,observed toxicity,,
,21 ×10⁻⁶ cm/s,37.4 ×10⁻⁶ cm/s,Nc1ccccc1-c1ccccc1NCc1nc2ccccc2o1 [CMP457],,observed toxicity,,
